Type: physicochemical
Description: The L. plantarum B21 bacteriocin was purified from the CFS by a three-step protocol process consisting of concentration, n-butanol extraction and cation exchange chromatography by Fast Protein Liquid Chromatography (FPLC). All purification steps were carried out at room temperature. L. plantarum B21 was used as an inoculum 2% (v/v) into 165 mL of MRS broth and incubated at 30 °C for 24 h without shaking. The CFS was prepared as previously described. The CFS was concentrated to 70 mL through a 10 kDa polyethersulfone membrane discs (Generon, UK) using an Amicon UF cell (Model 8200, Millipore, USA). The concentrated CFS was subjected to n-butanol extraction according to Abo-Amer with a few modifications. The concentrated L. plantarum B21 CFS was extracted twice in 1:1 volume of water saturated n-butanol and centrifuged at 10,000 × g for 10 min. The n-butanol fraction containing the bacteriocin was freeze dried (FDU-8612, Operon Co. Ltd, Korea) to remove the solvent. The dried n-butanol fraction was redissolved in 20 mM sodium phosphate buffer, pH 6.0. Both the n-butanol and aqueous fractions were examined for antimicrobial activity. […] The concentration of the bacteriocin was measured after each step of protein purification using Pierce™ BCA Protein Assay Kit (Thermo Fisher Scientific, USA) according to manufacturer's instruction.

For “cyclo(AAAGALGGTAAIVWIARQFGVHLTTKLTQKALDLLSSGASLGTVAAVILGVTLPGWAV) [plantacyclin B21AG]”, the Solubility in butanol was “remarkable solubility”.

From publication PMC7452424, “Discovery and characterisation of circular bacteriocin plantacyclin B21AG from Lactiplantibacillus plantarum B21” (Heliyon, 2020)
